{
  "source": "paper PMC9220178",
  "about": "“Preclinical Characterization of Antioxidant Quinolyl Nitrone QN23 as a New Candidate for the Treatment of Ischemic Stroke” (Antioxidants, 2022)",
  "key": {"[1]": {"design": "method as in PMID 30715875", "conditions": "in vitro; cited from earlier work"}, "[2]": {"tested_on": "adult male Wistar rats, four-vessel occlusion (4VO) transient forebrain ischemia", "experiment": "Long-term behavioral tests in the Y maze", "type": "in vivo, rat", "conditions": "2.0 mg/kg i.v. at reperfusion onset, 11 weeks after ischemia", "experimental": "Long-term assessment of neurological damage after the ischemic episode was performed by the evaluation of the spontaneous exploratory activity (spatial recognition) and spatial memory skills in the Y maze.\nFor the assessment of the exploratory activity and spatial recognition, control animals and ischemic animals treated with vehicle, QN23, or NXY-059 were placed in the center of the maze and allowed free exploration for 8 min. An independent researcher blind to the treatment allocation registered the total number of arms that the animal entered indistinctly (arm entries), and the times that the animal explored the three different arms of the maze consecutively (alternations or triads).\nFor the assessment of spatial memory, experiments consisted of two trials. For the first trial (training), control and ischemic animals treated with vehicle or QN23 were placed into one of the arms (start arm) and allowed to explore the Y maze for 10 min with one of the arms closed. One hour after the training trial, the animals were returned to the Y maze and the second trial was conducted. The animals were placed in the same start arm as in the training trial, but now with the remaining two arms of the maze available for exploration for 3 min. A researcher blind to the treatment allocation registered the first choice of arm for entry (novel or old)."}, "[3]": {"tested_on": "primary neuronal cultures subjected to OGD", "design": "method as in PMID 30715875", "conditions": "cited from earlier work"}, "[4]": {"experiment": "Toxicokinetics study, plasma concentration by LC-MS/MS after single i.v. bolus", "type": "in vivo, rat", "conditions": "for Clast / Cmax / AUC(0-t) / C0 / clearance / Vd / k el / half-life: female Sprague Dawley rats, plasma, mean ± SE, n = 6; for Cmax / AUC(0-t) / C0 / clearance / Vd / k el / half-life: rat, iv; for AUC(0-t): read-out: AUC0–8h; for C0: read-out: C0 (initial concentration); for clearance: read-out: Cl (clearance) (converted); for Vd: read-out: Vd (volume of distribution); for k el: read-out: kel (elimination constant) (converted); for half-life: read-out: t1/2 (half-life) (converted)", "experimental": "For the toxicokinetics study of QN23, female Sprague Dawley rats (9–10 weeks, Envigo, Barcelona, Spain) were divided into three groups (n = 6 per group) and treated intravenously with different concentrations of QN23 (2.0, 6.0, and 18 mg/kg), in vehicle solution (ethanol/polyethylene glycol 400/saline, 1:200:60 v/v), as a single bolus of 1 mL injection at 3 mL/min. Samples of plasma were taken at 0.25, 0.5, 1, 2, 4, and 8 h after the first administration (on day 1) and QN23 concentration was determined by liquid chromatography–mass spectrometry in tandem (LC-MS/MS) analysis for pharmacokinetic study. For the determination of the toxicokinetic parameters, a noncompartmental analysis was performed using the Phoenix 64 WinNonlin software (version 8.0, Certara, Sant Louis, MO, USA). This study was carried out by Swiss BioQuant AG (Reinach, Switzerland). For the toxicity study of QN23, rats were divided into four groups (n = 5 per group) and treated intravenously with vehicle (control group) or different concentrations of QN23 (2.0, 6.0, and 18 mg/kg) as a single bolus injection in a 4-day repeated dose as described above. Pathology analyses, comprising hematology, clinical biochemistry, and coagulation, were performed, and heart, kidney, liver, and spleen necropsies were collected for macroscopic analysis. This study was carried out by Vivotecnia Research S.L (Madrid, Spain)."}, "[5]": {"conditions": "applied at onset of recovery period after OGD"}},
  "note": "Like-named read-outs stand apart in the source and are kept apart here.",
  "data": [
    {"molecule": "COc1ccc2nc(Cl)c(/C=[N+](\\[O-])C(C)(C)C)cc2c1", "note": "[QN23, (Z)-N-tert-Butyl-1-(2-chloro-6-methoxyquinolin-3-yl)methanimine Oxide]", "values": [
      {"measurement": "Hydroxyl radical (·OH) scavenging", "setting": "[1]", "value": "potent scavenger"},
      {"measurement": "Y maze arm entries (exploratory activity)", "setting": "[2]", "value": "higher number of new entries"},
      {"measurement": "Y maze alternations (triads completed), spatial recognition", "setting": "[2]; vehicle 5.0, control 15.75", "value": 7.8},
      {"measurement": "Percentage of animals exploring the novel arm as a first choice (spatial memory)", "setting": "[2]; vehicle 17%, control 75%", "value": 67, "unit": "%"},
      {"measurement": "Most effective concentration for neuroprotection", "setting": "[3]; [5]", "value": 100, "unit": "µM"},
      {"measurement": "Optimal range of concentration for neuroprotection", "setting": "[3]; [5]", "value": "0.3 to 250", "unit": "µM"},
      {"measurement": "ROS and lipid peroxidation levels", "setting": "[3]; primary neuronal cultures subjected to OGD", "value": "decreased"},
      {"measurement": "Clast", "setting": "[4]; 2.0 mg/kg single i.v. bolus", "value": "30 ± 8", "unit": "ng/mL"},
      {"measurement": "Latest time after injection with quantifiable plasma concentration", "setting": "[4]; 6 mg/kg single i.v. bolus", "value": "≤ 4", "unit": "h"},
      {"measurement": "Clast", "setting": "[4]; 6.0 mg/kg single i.v. bolus", "value": "34 ± 5", "unit": "ng/mL"},
      {"measurement": "Last concentration found as share of the initial (and maximal) detected concentration", "setting": "[4]; 18 mg/kg single i.v. bolus", "value": "approximately 1%"},
      {"measurement": "Clast", "setting": "[4]; 18 mg/kg single i.v. bolus", "value": "49 ± 5", "unit": "ng/mL"},
      {"measurement": "AUC0–8h versus dose", "setting": "[4]; 2.0, 6.0 and 18 mg/kg single i.v. bolus", "value": "increased proportional to the dose administered"},
      {"measurement": "Cmax", "setting": "[4]; 2.0 mg/kg single i.v. bolus", "value": "161 ± 86", "unit": "ng/mL"},
      {"measurement": "AUC(0-t)", "setting": "[4]; 2.0 mg/kg single i.v. bolus", "value": "160 ± 61", "unit": "ng·h/mL"},
      {"measurement": "C0", "setting": "[4]; 2.0 mg/kg single i.v. bolus", "value": "540 ± 186", "unit": "ng/mL"},
      {"measurement": "Cmax", "setting": "[4]; 6.0 mg/kg single i.v. bolus", "value": "1090 ± 371", "unit": "ng/mL"},
      {"measurement": "AUC(0-t)", "setting": "[4]; 6.0 mg/kg single i.v. bolus", "value": "1010 ± 355", "unit": "ng·h/mL"},
      {"measurement": "C0", "setting": "[4]; 6.0 mg/kg single i.v. bolus", "value": "2170 ± 661", "unit": "ng/mL"},
      {"measurement": "Cmax", "setting": "[4]; 18 mg/kg single i.v. bolus", "value": "2570 ± 1200", "unit": "ng/mL"},
      {"measurement": "AUC(0-t)", "setting": "[4]; 18 mg/kg single i.v. bolus", "value": "2960 ± 1290", "unit": "ng·h/mL"},
      {"measurement": "C0", "setting": "[4]; 18 mg/kg single i.v. bolus", "value": "4350 ± 1860", "unit": "ng/mL"},
      {"measurement": "clearance", "setting": "[4]; 2.0 mg/kg single i.v. bolus", "value": 73.3, "unit": "mL/min"},
      {"measurement": "Vd", "setting": "[4]; 2.0 mg/kg single i.v. bolus", "value": "1.26 ± 0.434", "unit": "L"},
      {"measurement": "k el", "setting": "[4]; 2.0 mg/kg single i.v. bolus", "value": 0.00118, "unit": "s⁻¹"},
      {"measurement": "half-life", "setting": "[4]; 2.0 mg/kg single i.v. bolus", "value": "9.6 ± 0.6", "unit": "min"},
      {"measurement": "clearance", "setting": "[4]; 6.0 mg/kg single i.v. bolus", "value": 56.7, "unit": "mL/min"},
      {"measurement": "Vd", "setting": "[4]; 6.0 mg/kg single i.v. bolus", "value": "1.66 ± 0.584", "unit": "L"},
      {"measurement": "k el", "setting": "[4]; 6.0 mg/kg single i.v. bolus", "value": 0.000931, "unit": "s⁻¹"},
      {"measurement": "half-life", "setting": "[4]; 6.0 mg/kg single i.v. bolus", "value": "14.4 ± 1.8", "unit": "min"},
      {"measurement": "clearance", "setting": "[4]; 18 mg/kg single i.v. bolus", "value": 78.1, "unit": "mL/min"},
      {"measurement": "Vd", "setting": "[4]; 18 mg/kg single i.v. bolus", "value": "20.4 ± 12.3", "unit": "L"},
      {"measurement": "k el", "setting": "[4]; 18 mg/kg single i.v. bolus", "value": 0.000347, "unit": "s⁻¹"},
      {"measurement": "half-life", "setting": "[4]; 18 mg/kg single i.v. bolus", "value": "67.8 ± 23.4", "unit": "min"}
    ]}
  ]
}
